Assay results reported in ChEMBL document CHEMBL1201862, “PubChem BioAssay data set” (2004).
The source made the active and inactive calls.

Key:
[1] = target: T1, Mannose-6-phosphate isomerase (Homo sapiens, UniProt P34949); assay: inhibitors of human PMI, primary screen, biochemical, fluorescence intensity, coupled assay (AID 1209)
T1 sequence (P34949 whole entry): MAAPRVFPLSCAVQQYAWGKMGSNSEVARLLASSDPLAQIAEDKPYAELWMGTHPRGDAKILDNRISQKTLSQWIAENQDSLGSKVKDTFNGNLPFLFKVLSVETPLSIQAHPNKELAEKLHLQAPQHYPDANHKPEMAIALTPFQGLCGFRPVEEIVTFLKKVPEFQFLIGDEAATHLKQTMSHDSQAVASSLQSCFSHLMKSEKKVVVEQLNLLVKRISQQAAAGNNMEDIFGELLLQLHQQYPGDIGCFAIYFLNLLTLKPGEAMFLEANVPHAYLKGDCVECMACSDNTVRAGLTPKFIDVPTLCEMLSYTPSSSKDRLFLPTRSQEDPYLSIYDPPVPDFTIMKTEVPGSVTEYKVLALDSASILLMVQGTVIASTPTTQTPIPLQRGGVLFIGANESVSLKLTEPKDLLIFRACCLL

[2] = A cytotoxicity screen of small molecule inhibitors of the PhoP region in Salmonella typhi identified in the primary screen. [Related pubchem assays: 1850, 1864, 1985 ]; assay type: functional
[3] = target: T2, Peroxisome proliferator-activated receptor gamma/Nuclear receptor coactivator 3 (Homo sapiens, UniProt P37231); assay type: functional
[4] = target: T3, Peroxisome proliferator-activated receptor gamma/Nuclear receptor coactivator 1 (Homo sapiens, UniProt P37231); assay type: functional
[5] = target: T4, Peroxisome proliferator-activated receptor gamma/Nuclear receptor coactivator 2 (Homo sapiens, UniProt P37231); assay type: functional
[6] = cytotoxicity in HEK-293T cells, dose response, cytotoxicity control for TCR NF-kB inhibitor project, luminescence, T-cell screen hits (AID 489026); assay type: functional, cell-based;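 further: cells exposed to compound about 14 hours before the viability readout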
HEK293 [7] = assay: cells; settings: Homo sapiens
HEK293 [8] = assay: cells; settings: Homo sapiens; remark: listed apart in the source
[9] = Luminescence Cell-Based Dose Retest to Confirm Inhibitors of Cancer Stem Cells. [Related pubchem assays (depositor defined):AID2717, AID2721]; assay type: functional; settings: Homo sapiens
[10] = THP-1 cell cytotoxicity, dose response, cytotoxicity control for Vif-APOBEC3G degradation inhibitor project, THP-1 cells (AID 1117359); assay type: functional; settings: Human immunodeficiency virus 1, THP-1
Protein Tat = target: T5, Protein Tat (Human immunodeficiency virus type 1 group M subtype B (isolate HXB2)(HIV-1), UniProt P04608); assay type: functional;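 further: tat binding to TAR RNA read out by fluorescence polarization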
T5 sequence (P04608 whole entry): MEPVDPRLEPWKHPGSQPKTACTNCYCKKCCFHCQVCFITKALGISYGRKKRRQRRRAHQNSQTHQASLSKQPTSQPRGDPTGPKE

[11] = target: T2, Peroxisome proliferator-activated receptor gamma/Nuclear receptor coactivator 3; assay: TR-FRET dose response biochemical High Throughput Screening assay for agonists of the steroid receptor coactivator 3 (SRC-3) recruitment by the peroxisome proliferator-activated receptor gamma (PPAR gamma): non-selective agonists. [Related pubchem assays: 1301 (Confirmation screen.), 1048 (Primary screen.)]; assay type: functional
[12] = target: T4, Peroxisome proliferator-activated receptor gamma/Nuclear receptor coactivator 2; assay: (§1) TR-FRET dose response biochemical High Throughput Screening assay for agonists of the steroid receptor coactivator 2 (SRC-2) recruitment by the peroxisome proliferator-activated receptor gamma (PPAR gamma): non-selective agonists. [Related pubchem assays: 1297, 1032 ]; assay type: functional
[13] = target: T3, Peroxisome proliferator-activated receptor gamma/Nuclear receptor coactivator 1; assay: as §1, with “1 (SRC-1)” for “2 (SRC-2)”, “assays (depositor defined):AID1300, AID1808, AID504735, AID631]” for “assays: 1297, 1032 ]”; assay type: protein assay
Estrogen receptor beta = Estrogen receptor beta (Homo sapiens, UniProt Q92731);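 further: recombinant ER-beta bound to coactivator SRC1 peptide in presence of estradiol agonist; inhibitors block coactivator peptide binding and lower the FRET signal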
[14] = target: Luciferin 4-monooxygenase (Photinus pyralis, UniProt P08659); assay: firefly luciferase enzyme inhibitors, dose response, biochemical, luminescence (AID 1891)
[15] = Luminescence Cell-Based Dose Response HTS to Identify Inhibitors of 5'UTR Stem-Loop Driven Prion Protein mRNA Translation in H4 Neuroglioblastoma Cells. [Related pubchem assays: 1827 (Project Summary), 1813 (Primary HTS)]; assay type: functional
[16] = target: T6, High affinity choline transporter 1 (Homo sapiens, UniProt Q9GZV3); assay: CHT inhibitors, dose response, cell-based, 5-point CRC, membrane potential dye (AID 504840); assay type: functional
T6 sequence (Q9GZV3 whole entry): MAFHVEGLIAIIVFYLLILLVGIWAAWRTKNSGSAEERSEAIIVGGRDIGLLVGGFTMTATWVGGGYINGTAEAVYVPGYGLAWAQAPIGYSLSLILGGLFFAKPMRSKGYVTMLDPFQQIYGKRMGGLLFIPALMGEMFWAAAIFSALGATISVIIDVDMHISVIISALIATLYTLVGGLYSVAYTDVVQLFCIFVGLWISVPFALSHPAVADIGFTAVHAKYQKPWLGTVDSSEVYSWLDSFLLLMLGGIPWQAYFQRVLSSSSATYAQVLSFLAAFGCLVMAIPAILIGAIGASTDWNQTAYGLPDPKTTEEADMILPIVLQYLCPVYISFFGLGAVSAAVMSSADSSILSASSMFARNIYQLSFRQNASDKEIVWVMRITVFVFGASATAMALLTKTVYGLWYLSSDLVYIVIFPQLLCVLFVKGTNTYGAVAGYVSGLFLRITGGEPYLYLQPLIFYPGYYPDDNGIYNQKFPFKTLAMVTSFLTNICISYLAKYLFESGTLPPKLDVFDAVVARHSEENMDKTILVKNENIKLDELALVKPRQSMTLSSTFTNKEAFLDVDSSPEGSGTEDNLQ

[17] = inhibitors of firefly luciferase expression or activity, dose response, H4 neuroglioma cells, luminescence (AID 1990); assay type: functional, cell-based
[18] = inhibitors of SNCA 5'UTR-driven reporter translation, confirmation, H4 neuroglioma cells, luminescence (AID 1988); assay type: functional, cell-based
[19] = Luminescence Cell-Based Dose Confirmation HTS to Identify Inhibitors of Platelet Dense Granule Release. [Related pubchem assays: 1663 (Primary HTS), 1678 (Summary of Project)]; assay type: functional
Cytochrome P450 1A2 = target: T7, Cytochrome P450 1A2 (Homo sapiens, UniProt P05177);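 further: PubChem cytochrome P450 panel assay, CYP1A2 panel member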
T7 sequence (P05177 whole entry): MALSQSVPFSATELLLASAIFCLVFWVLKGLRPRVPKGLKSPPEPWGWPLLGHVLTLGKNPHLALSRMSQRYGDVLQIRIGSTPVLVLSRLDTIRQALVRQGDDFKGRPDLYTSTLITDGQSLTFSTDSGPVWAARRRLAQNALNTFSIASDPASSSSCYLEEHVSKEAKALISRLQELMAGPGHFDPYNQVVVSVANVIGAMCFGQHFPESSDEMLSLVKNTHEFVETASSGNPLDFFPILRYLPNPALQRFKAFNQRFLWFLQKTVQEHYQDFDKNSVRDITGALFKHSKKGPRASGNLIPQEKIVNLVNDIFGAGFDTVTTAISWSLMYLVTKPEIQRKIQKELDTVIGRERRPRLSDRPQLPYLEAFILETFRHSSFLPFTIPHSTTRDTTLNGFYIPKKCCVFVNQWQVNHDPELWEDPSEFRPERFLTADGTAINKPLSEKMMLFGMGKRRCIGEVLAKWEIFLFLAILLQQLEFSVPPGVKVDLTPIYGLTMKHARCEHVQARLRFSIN

Cytochrome P450 2D6 = Cytochrome P450 2D6 (Homo sapiens, UniProt P10635);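 further: CYP2D6 member of a cytochrome P450 panel assay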
[20] = target: T8, Rac GTPase-activating protein 1 (Homo sapiens, UniProt Q9H0H5); assay: MgcRacGAP GTPase-activating activity inhibitors, confirmation, biochemical, ADP Hunter fluorescence, primary and confirmatory (AID 624330); assay type: functional
T8 sequence (Q9H0H5 whole entry): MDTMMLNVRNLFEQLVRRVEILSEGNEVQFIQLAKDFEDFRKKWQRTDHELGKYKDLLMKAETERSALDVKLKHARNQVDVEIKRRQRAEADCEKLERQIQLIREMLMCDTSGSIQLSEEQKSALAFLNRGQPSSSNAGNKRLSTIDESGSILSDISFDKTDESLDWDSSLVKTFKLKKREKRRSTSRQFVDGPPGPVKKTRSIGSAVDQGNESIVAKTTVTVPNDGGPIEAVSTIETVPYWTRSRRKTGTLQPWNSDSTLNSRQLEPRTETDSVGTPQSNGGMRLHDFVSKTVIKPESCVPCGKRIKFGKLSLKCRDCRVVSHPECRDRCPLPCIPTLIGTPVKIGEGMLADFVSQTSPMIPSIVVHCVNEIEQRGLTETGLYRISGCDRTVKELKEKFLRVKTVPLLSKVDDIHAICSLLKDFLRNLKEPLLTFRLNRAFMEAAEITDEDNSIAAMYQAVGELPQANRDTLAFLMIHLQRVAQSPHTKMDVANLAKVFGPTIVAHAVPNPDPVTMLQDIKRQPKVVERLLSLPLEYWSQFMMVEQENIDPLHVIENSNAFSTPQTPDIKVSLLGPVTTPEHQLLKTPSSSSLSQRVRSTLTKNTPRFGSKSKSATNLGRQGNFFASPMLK

T2 sequence (P37231 whole entry): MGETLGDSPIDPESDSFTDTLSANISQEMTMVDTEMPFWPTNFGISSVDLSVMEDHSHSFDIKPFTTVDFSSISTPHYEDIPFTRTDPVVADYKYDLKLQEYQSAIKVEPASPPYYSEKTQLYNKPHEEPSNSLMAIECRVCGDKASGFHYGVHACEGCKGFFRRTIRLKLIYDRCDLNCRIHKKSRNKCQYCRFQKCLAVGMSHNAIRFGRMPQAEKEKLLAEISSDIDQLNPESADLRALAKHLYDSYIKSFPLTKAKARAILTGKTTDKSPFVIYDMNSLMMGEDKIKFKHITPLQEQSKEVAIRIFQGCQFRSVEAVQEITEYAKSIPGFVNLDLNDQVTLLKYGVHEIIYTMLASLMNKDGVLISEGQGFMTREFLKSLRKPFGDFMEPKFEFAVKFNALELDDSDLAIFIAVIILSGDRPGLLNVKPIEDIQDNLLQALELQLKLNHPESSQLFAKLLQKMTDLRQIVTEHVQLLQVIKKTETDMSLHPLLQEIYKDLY
T2 sequence (Q9Y6Q9 whole entry, further chain): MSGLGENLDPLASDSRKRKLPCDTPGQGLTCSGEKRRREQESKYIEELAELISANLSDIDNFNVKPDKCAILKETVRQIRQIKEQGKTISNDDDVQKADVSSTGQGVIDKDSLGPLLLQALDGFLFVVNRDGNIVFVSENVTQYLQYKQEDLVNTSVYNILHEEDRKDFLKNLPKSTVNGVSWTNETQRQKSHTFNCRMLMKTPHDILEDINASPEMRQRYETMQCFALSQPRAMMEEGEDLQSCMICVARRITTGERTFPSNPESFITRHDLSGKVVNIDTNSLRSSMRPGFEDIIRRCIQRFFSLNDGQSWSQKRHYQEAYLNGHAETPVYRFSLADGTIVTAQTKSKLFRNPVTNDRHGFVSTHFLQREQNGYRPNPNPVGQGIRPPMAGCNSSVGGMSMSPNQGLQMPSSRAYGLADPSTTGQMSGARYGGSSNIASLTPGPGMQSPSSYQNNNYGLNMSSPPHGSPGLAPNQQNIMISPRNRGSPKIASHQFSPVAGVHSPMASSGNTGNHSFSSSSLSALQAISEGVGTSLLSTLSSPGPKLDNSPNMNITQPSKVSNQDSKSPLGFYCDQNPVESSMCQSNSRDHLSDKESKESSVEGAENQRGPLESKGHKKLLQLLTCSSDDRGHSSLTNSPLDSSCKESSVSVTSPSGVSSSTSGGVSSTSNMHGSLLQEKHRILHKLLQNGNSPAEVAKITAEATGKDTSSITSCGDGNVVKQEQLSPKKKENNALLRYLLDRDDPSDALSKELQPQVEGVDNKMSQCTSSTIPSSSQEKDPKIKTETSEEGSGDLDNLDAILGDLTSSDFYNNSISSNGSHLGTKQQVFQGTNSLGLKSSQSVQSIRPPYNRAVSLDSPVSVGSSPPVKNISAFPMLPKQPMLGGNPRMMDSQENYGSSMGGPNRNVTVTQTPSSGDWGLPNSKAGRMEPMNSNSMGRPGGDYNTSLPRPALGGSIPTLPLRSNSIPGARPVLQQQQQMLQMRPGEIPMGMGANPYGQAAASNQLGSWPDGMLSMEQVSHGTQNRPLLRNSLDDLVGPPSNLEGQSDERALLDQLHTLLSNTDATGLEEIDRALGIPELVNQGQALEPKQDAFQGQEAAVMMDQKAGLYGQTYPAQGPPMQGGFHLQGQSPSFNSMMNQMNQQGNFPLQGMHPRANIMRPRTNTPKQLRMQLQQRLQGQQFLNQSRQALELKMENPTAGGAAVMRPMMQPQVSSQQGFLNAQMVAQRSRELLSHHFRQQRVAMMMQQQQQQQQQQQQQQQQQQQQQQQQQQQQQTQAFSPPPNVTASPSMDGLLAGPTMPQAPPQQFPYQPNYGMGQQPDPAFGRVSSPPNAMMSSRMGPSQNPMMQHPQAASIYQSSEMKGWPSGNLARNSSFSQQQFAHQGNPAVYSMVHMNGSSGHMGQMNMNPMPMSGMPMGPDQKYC
T3 sequence (P37231 whole entry): as the sequence (P37231 whole entry) above
T3 sequence (Q15788 whole entry, further chain): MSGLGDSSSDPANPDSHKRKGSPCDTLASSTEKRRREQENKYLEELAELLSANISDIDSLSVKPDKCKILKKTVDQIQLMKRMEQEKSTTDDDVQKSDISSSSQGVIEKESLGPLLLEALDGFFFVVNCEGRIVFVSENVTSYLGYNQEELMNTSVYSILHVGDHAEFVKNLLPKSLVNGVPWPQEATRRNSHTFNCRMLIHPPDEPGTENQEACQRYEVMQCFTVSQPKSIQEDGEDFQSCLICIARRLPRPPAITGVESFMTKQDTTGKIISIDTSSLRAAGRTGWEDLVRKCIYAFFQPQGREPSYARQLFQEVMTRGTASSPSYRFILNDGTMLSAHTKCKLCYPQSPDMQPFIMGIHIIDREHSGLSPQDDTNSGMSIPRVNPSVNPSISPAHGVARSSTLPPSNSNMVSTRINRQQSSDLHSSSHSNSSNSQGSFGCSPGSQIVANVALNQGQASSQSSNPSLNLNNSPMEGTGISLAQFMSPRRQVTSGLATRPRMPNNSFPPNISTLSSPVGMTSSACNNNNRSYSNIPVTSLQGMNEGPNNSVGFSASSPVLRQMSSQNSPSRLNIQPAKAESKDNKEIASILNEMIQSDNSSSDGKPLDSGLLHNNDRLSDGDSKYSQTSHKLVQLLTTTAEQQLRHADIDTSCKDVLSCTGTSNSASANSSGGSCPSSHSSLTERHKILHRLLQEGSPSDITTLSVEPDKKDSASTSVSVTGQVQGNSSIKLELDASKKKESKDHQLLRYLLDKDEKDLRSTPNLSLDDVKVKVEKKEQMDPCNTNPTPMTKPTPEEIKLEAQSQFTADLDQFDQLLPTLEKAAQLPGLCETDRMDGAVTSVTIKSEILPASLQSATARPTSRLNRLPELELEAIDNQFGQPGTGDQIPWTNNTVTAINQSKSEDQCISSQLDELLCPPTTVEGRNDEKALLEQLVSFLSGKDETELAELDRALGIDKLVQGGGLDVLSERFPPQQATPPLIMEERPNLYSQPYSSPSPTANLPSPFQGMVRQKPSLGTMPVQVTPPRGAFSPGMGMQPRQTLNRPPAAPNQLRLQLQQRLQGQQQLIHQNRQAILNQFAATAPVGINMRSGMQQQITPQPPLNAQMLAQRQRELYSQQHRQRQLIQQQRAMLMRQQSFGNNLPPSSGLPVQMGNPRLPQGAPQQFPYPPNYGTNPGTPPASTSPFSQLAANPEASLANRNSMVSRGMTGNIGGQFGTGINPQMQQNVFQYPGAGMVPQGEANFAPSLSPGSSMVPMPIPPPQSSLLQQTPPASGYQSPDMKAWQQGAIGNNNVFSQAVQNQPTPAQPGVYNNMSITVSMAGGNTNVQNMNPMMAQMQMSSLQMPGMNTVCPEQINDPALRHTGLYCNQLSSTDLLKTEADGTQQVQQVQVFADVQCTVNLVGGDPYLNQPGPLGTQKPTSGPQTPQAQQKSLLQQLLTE
Sequence of Estrogen receptor beta (Q92731 whole entry): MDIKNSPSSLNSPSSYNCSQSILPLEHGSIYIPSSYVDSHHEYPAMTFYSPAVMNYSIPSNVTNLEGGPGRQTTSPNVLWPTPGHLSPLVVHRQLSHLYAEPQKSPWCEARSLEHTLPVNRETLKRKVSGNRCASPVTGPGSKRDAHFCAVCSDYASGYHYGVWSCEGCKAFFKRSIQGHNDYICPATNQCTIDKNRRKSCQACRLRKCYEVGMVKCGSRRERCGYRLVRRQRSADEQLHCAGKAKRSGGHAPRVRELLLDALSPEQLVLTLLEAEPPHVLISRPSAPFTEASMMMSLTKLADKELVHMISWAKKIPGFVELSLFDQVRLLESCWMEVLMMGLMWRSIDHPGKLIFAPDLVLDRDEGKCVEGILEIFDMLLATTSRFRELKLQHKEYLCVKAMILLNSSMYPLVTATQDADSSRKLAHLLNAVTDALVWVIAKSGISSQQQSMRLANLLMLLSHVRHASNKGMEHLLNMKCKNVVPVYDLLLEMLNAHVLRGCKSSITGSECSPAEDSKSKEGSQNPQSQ
Sequence of Cytochrome P450 2D6 (P10635 whole entry): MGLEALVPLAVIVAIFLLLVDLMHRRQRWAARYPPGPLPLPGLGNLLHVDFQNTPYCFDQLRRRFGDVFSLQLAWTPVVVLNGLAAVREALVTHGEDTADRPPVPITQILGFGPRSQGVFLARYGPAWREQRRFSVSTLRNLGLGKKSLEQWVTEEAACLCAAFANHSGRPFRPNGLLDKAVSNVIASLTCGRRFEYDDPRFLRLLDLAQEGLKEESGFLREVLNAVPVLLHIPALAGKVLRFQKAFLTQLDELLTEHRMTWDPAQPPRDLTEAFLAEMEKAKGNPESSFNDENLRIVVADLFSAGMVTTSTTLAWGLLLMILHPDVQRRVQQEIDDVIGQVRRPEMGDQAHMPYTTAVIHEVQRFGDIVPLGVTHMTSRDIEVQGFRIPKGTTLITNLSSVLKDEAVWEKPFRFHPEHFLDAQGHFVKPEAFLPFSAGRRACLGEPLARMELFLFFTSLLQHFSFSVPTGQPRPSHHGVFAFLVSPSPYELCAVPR

Question: With `COc1ccccc1CSc1nc(-c2ccc([N+](=O)[O-])cc2)c[nH]1` as the molecule, how does the IC50 [1] read?
Answer: > 50 µM (not active)

Question: For `COc1ccc(CNCC(O)COc2ccc(C)cc2[N+](=O)[O-])cc1` (centres undefined), which EC50 [2] is on record?
Answer: > 50 µM (active)

Question: Which EC50 [3] does the source give for `COc1ccc(-c2noc(-c3ccc(Br)o3)n2)cc1OC` here?
Answer: 68.6 µM (not active)

Question: And the EC50 [4]?
Answer: 64.1 µM (not active)

Question: And the EC50 [5]?
Answer: 63 µM (not active)

Question: Which IC50 [6] does the source give for `COc1ccc([N+](=O)[O-])cc1Nc1c2ccccc2nc2ccccc12` here?
Answer: > 80 µM (inactive)

Question: And the EC50 (HEK293 [7])?
Answer: > 59.6 µM (inactive)

Question: And the EC50 (HEK293 [8])?
Answer: > 59.6 µM (inactive)

Question: And the AC50 [9]?
Answer: 0.956 µM (active)

Question: What does the source list for `Cc1cc(C)cc(NCc2cc3c(cc2[N+](=O)[O-])OCO3)c1`?
Answer: CC50 [10]: > 40 µM (active); IC50 (Protein Tat): > 100 µM (inconclusive)

Question: Which EC50 [11] does the source give for `CCCC(=O)Nc1nc(C)c(C(C)=O)s1` here?
Answer: > 79.4 µM (not active)

Question: What about the EC50 [12] of the same molecule?
Answer: 137 µM (not active)

Question: And the EC50 [13]?
Answer: > 79.4 µM (inactive)

Question: With `Cc1ccc(C)c(Cn2c(=O)n(-c3ccc(CC(=O)NCc4ccco4)cc3)c(=O)c3sccc32)c1` as the molecule, how does the IC50 (Estrogen receptor beta) read?
Answer: > 50 µM (not active)

Question: With `Cc1ccc(C2=NN=C(NC(=O)C(F)(F)F)SC2)cc1` as the molecule, how does the IC50 [1] read?
Answer: > 50 µM (not active)

Question: For `COc1cc2c(cc1OC)-c1cc(NC3CCCCCCC3)nc(=O)n1CC2`, which EC50 [14] is on record?
Answer: > 112 µM (not active)

Question: And the EC50 [15]?
Answer: 0.18 µM (active)

Question: And the EC50 (HEK293 [7])?
Answer: > 59.7 µM (inactive)

Question: What about the IC50 [16] of the same molecule?
Answer: 7.99 µM (active)

Question: What about the EC50 [17] of the same molecule?
Answer: 28.4 µM (active)

Question: And the EC50 (HEK293 [8])?
Answer: > 59.7 µM (inactive)

Question: And the EC50 [18]?
Answer: > 120 µM (not active)

Question: And the EC50 [19]?
Answer: 6.92 µM (active)

Question: Which results are given for `Cc1ccc(-c2ccc(/C=C(\C#N)C(N)=S)o2)c([N+](=O)[O-])c1`?
Answer: EC50 [3]: > 79.4 µM (not active); EC50 [4]: > 79.4 µM (not active); EC50 [5]: > 79.4 µM (not active)

Question: For `Cc1ccc2nc(SCC(=O)NCc3cccs3)c(C#N)cc2c1`, which AC50 (Cytochrome P450 1A2) is on record?
Answer: 0.708 µM (inconclusive)

Question: And the EC50 [3]?
Answer: 20.8 µM (not active)

Question: What about the EC50 [4] of the same molecule?
Answer: 19 µM (not active)

Question: What about the AC50 (Cytochrome P450 2D6) of the same molecule?
Answer: 0.316 µM (inconclusive)

Question: What about the EC50 [5] of the same molecule?
Answer: 11.6 µM (not active)

Question: For `COc1ccc(N2C(=O)CC(N3CC=C(c4ccccc4)CC3)C2=O)cc1` (centres undefined), which EC50 [2] is on record?
Answer: > 50 µM (active)

Question: Which results are given for `Oc1ncnc2c1c(-c1ccccc1)cn2-c1ccc(F)cc1`?
Answer: EC50 (HEK293 [7]): > 59.6 µM (inactive); EC50 (HEK293 [8]): > 59.6 µM (inactive)

Question: Which IC50 (Estrogen receptor beta) does the source give for `Cn1c(=O)c2c(ncn2CCCNC2=CC(C)(C)CC(=O)C2)n(C)c1=O` here?
Answer: > 50 µM (not active)

Question: For `CC(C)CNC(CC(=O)O)c1ccccc1` (centres undefined), which EC50 [2] is on record?
Answer: > 50 µM (active)

Question: With `C/C(=C\C(=O)c1cccnc1)Nc1ccc(O)cc1` as the molecule, how does the IC50 (Protein Tat) read?
Answer: 26.2 µM (inconclusive)

Question: What about the IC50 [20] of the same molecule?
Answer: 14.7 µM (active)
